Blank lines part the entries; values can stand above or below the compound they belong to. Residues, ends and D or L forms follow the SMILES beside them.
Tests used:
[1] = system: H358 lung cancer cell line; test: NCI-H358 KRAS-dependent lung cancer xenograft mouse model; format: in vivo; conditions: 10 mg/Kg intraperitoneal 5 days per week
Procedure: FIG. 9: Kindpep decreases tumor growth of KRAS-dependent tumors in vivo. A. Diagram presenting the course of the experiment. B. Scatter plot showing the tumor volume of the different mice of the control and Kindpep1 treated groups, at the end of the treatment. Mean±SD are represented (*p<0.05). C. Graph monitoring tumor growth of control and Kindpep1 treated mice during the course of the experiment. Mean±SD are represented.
NCI-H358 model: 1×10^5 cells were injected subcutaneously in the flanks of 6-week old female BALB/c mice (n=10 mice for each control and treated groups). Tumor volume was measured with caliper 3 times a week. […] Tumor volumes were calculated as: Volume (cm^3)=a×b^2/2 (a and b are the two registered perpendicular diameters a>b). Tumor growth inhibition (TGI) was calculated using the following formula [1−(Vft−V0t)/(Vfc−V0c))]*100 where Vft=final volume of the treated group (at the end of the treatment); Vot=initial volume of the treatment group (at the beginning of the treatment); Vfc=final volume of the control group (at the end of the treatment); V0c=initial volume of the control group (at the beginning of the treatment).
Finally, inventors wanted to validate in vivo the impact of Kindpep1 treatment in KRAS-dependent tumors. […] The treatment was administered by intraperitoneal injections 5 days per week and tumor growth was monitored for 50 days (FIG. 9A).

[2] = system: triple negative breast cancer PDX; test: Triple negative breast cancer patient derived xenograft (PDX) model; format: in vivo; conditions: nude mice, 10 mg/Kg intraperitoneal 5 days per week
Procedure: FIG. 6: Kindpep1 reduces the metastatic spread in a breast cancer PDX model. A. Diagram presenting the course of the experiment. B Quantification of the number of metastatic nodules found in the lungs of control and Kindpep1 treated mice. Mean±SEM are represented. Statistical analyses were performed by a t-test.
The triple negative breast cancer PDX model expressing high levels of Kindlin-1 was obtained from the Laboratoire d'Investigation Pré-clinique. Informed consent was obtained from patient before xenograft establishment. When tumor reached a volume of 60 to 200 mm^3, mice were randomly assigned to the control or treated group. Kindpep1 was administrated by intraperitoneal injection at a dose of 10 mg/kg 5 times a week. The vehicle alone (Nacl 0.9%) was administered to the control group following the same treatment regimen as with the drug. The control and treated group consisted of 10 mice each.
Then, a triple negative breast cancer patient derived xenograft (PDX) model previously characterized as highly metastatic and presenting high expression levels of Kindlin-1 was chosen. Tumor fragments were grafted into the interscapular fat pad of female nude immunodeficient mice and 5 days later the treatment started. […] The treatment was administered by intraperitoneal injections 5 days per week and tumor growth was monitored until reaching the ethical size, i.e. 2 cm^3 (FIG. 6A). […]

4T1-luc cells = test: 4T1-luc metastatic breast cancer model in BALB/c mice; format: in vivo; conditions: BALB/c mice, 2, 10 or 50 mg/kg, 7 day per week during 10 days
Excerpt: FIG. 5: Kindpep1 reduces tumor growth and metastatic spread in breast cancer in vivo. A. Diagram presenting the course of the experiment. B. Corresponding relative tumor growth graph to bioluminescence images of tumors at day 25. C. Corresponding graph showing the quantification of the total area of metastatic nodules found in the different groups of mice to bioluminescence images of metastasis at day 25. Area ph/s/group stands for area photon/second/group.
4T1-luc model: 1×10^5 4T1-luc cells were inoculated subcutaneously in the flanks of 6-week old female BALB/c mice (n=28). Eleven days after tumor cell inoculation, […] mice were randomly assigned to receive intraperitoneal injection of Kindpep1 (2, 10 or 50 mg/kg) or placebo (PBS). The tumor growth and the progression of metastatic lesions were also weekly monitored by bioluminescence imaging of animals using the Nightowl imaging system. On day 25 after tumor cell inoculation, anesthetized mice were sacrificed by cervical dislocation.
These observations prompted the investigation of the effects of Kindpep1 in vivo. […] Thus, the effects of Kindpep1 on tumor dissemination in a metastatic breast cancer model was studied. 4T1 cells were used because they have a high Kindlin-1 expression and have been also described to form lung metastasis in vivo. […]

β1-integrin = molecular target: T1, β1-integrin (Homo sapiens, UniProt P05556); test: Flow cytometry of cell-surface active β1-integrin (9EG7) in MDA MB 231 cells; format: cell-based; conditions: MDA MB 231, 2 mM MnCl2, positive control
T1 construct: endogenous in cells; host or cells: MDA MB 231 human breast cancer cells
T1 sequence (P05556 21-798): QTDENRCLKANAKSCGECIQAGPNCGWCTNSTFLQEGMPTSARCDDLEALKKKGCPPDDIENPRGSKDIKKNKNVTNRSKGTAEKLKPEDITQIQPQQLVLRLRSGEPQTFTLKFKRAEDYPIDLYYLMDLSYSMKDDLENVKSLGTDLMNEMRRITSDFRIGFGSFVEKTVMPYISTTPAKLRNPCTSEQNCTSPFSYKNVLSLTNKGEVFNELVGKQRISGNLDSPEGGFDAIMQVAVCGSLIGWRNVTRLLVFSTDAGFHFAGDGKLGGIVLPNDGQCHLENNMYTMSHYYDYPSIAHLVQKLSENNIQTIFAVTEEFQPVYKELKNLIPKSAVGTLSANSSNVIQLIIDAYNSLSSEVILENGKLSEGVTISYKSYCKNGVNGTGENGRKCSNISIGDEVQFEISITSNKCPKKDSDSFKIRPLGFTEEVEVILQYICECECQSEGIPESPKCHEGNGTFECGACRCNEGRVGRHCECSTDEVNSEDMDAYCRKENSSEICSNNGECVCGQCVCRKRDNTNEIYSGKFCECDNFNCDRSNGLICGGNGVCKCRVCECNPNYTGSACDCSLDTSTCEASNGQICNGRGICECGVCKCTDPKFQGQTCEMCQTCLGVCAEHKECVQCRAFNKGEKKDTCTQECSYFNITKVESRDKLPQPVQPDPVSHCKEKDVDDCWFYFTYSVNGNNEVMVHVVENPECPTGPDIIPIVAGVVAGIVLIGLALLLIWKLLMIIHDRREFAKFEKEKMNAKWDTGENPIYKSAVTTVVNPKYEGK
Procedure: FIG. 3: Kindpep1 reduces β1-integrin activation. Fluorescence activated sorter (FACS) histograms (top) and the corresponding bar graphs showing the mean fluorescence intensity (MFI) of cell-surface active β-1 integrin (9EG7 staining) of MDA MB 231 cells untreated, treated with Kindpep1 (200 μM) for 15 h or treated with 2 mM MnCl2.
To quantify the expression levels of integrins, cultured cells were trypsinized, washed and incubated for 1 h at 4° C. in phosphate-buffered saline (PBS) containing 150 mM NaCl and 1% BSA with the rat anti-1 integrin (9EG7 clone, 1:300) primary antibodies obtained from BD Biosciences. Cells were then washed 3 times, incubated with Alexa Fluor 488-conjugated secondary antibody for 1 h at 4° C. and washed. 1×10^4 cells were analyzed on a FACS Calibur. The mean fluorescence intensity of each sample was obtained using the Flowing software 2.
The effect of Kindpep1 on β1-integrin activation was confirmed by performing the same immunofluorescence assays using the human breast cancer cell line MDA MB 231, characterized by a high Kindlin-1 protein endogeneous expression.

[3] = molecular target: β1-integrin of 168FARN mouse breast cancer cells (endogenous) (mouse) (UniProt P09055); test: cell-based or functional assay
Chain of β1-integrin of 168FARN mouse breast cancer cells (endogenous) (mouse) (P09055 21-798): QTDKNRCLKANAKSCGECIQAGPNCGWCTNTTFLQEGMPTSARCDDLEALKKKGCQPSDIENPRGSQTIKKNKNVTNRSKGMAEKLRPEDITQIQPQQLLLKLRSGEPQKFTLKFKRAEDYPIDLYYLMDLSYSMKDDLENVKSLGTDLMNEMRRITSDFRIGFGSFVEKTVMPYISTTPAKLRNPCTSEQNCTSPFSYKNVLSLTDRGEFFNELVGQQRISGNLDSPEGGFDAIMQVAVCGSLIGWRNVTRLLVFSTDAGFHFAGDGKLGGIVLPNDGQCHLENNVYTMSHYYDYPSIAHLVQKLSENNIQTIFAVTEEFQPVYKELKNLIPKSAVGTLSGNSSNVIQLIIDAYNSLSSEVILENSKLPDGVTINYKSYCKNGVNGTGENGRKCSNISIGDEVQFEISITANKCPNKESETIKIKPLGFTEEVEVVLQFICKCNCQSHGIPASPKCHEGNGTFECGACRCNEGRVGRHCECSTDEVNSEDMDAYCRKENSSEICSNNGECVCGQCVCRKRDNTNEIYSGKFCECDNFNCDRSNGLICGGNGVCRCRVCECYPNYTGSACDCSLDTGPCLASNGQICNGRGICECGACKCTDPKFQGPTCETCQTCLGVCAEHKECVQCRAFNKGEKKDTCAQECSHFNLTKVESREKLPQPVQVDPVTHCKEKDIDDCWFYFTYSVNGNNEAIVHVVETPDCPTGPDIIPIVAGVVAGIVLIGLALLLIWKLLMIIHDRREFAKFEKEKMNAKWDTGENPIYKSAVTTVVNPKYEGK

Compound: CC[C@H](C)[C@H](NC(=O)[C@H](CCCCN)NC(=O)[C@H](CCCCN)NC(=O)[C@H](CCCCN)NC(=O)[C@H](CCCCN)NC(=O)[C@@H](N)C(C)C)C(=O)N[C@@H](CCCCN)C(=O)N[C@@H](C)C(=O)N[C@@H](CCC(=O)O)C(=O)N[C@H](C(=O)N[C@@H](CCCCN)C(=O)N[C@H](C(=O)N[C@@H](CO)C(=O)N[C@@H](Cc1ccccc1)C(=O)N[C@@H](CC(C)C)C(=O)N[C@@H](CCCNC(=N)N)C(=O)N[C@@H](CCSC)C(=O)N[C@@H](CCCCN)C(=O)N[C@@H](CC(N)=O)C(=O)N[C@@H](CCCNC(=N)N)C(=O)N[C@@H](CC(N)=O)C(=O)N[C@@H](CO)C(=O)N[C@@H](C)C(=O)N[C@@H](CO)C(=O)N[C@@H](CCC(N)=O)C(=O)N[C@H](C(=O)N[C@@H](C)C(=O)N[C@@H](CO)C(=O)N[C@@H](CO)C(=O)N[C@@H](CC(C)C)C(=O)O)C(C)C)[C@@H](C)CC)[C@@H](C)CC [Kindpep1] (H-VKKKKIKAEIKISFLRMKNRNSASQVASSL-OH)
- toxicities in nude mice [1]: without apparent toxicities
- death during the treatment [2]: no death was observed
- side effects [2]: no side effects were detected
- death during the treatment (4T1-luc cells): no death was observed
- side effects (4T1-luc cells): no any side effects was detected

- levels of active β1-integrin on the cell surface (flow cytometry, 9EG7) (β1-integrin): increase levels of active β1-integrin
Compound: [Cl][Mn][Cl] [MnCl2]

- velocity of cell migration of 168FARN cells in 3D collagen matrix (time-lapse tracking) [3]: 3.8 fold
Compound: wild-type Kindlin-1 expressed in 168FARN cells (from UniProt Q9BQL6 1-677)

— patent US20250163113A1, “PEPTIDES TARGETING THE INTERACTION BETWEEN KINDLIN-1 AND Beta-INTEGRIN” (INSTITUT CURIE, priority 2022, published 2025)
